Results: patent publication EP0222912A1, “AGENT FOR TREATING ARTERIOSCLEROSIS” (ZERIA SHINYAKU KOGYO KABUSHIKI KAISHA, priority 1984, dated 1985)

Key:
Format in all cases: in vivo
male SD rats [1] = test system: male SD rats
Procedure: In order to examine the effect of decreasing lipids, male SD rats aged four weeks were classified into the following four groups: i.e. (1) an ordinary diet group (control); (2) a cholesterol diet group; (3) a cholesterol diet group to which cycloartenol ferulate was administered; and (4) a cholesterol diet group to which γ-oryzanol was administered.
Cycloartenol ferulate or γ-oryzanol was orally administered for 12 days repeatedly with the use of a metal probe. Each compound was administered in doses of 100 mg/kg, 500 mg/kg and 1000 mg/kg per animal a day. After each administration, blood of the animal was collected to determine free cholesterol (FC), triglyceride (TG) and phospholipids (PL) contained therein.

dd mice = assay: acute toxicity, oral, mice; details: 5 g/kg orally, five dd mice
Excerpt: (§1) In order to examine the acute toxicity of cycloartenol ferulate, it was orally administered to five dd mice and five SD rats.

SD rats = assay: acute toxicity, oral, rats; details: 5 g/kg orally, five SD rats
Excerpt: as §1

male SD rats [2] = assay: hyperlipemia induced by Triton WR-1339; details: 10 mg/kg intravenously with 300 mg/kg Triton WR-1339, blood 43 hours after injection
Procedure: In order to examine the mechanism of the lipid decreasing effect of cycloartenol ferulate the effect of the same on hyperlipemia induced by a surfactant (Triton WR-1339) was confirmed.
The test was conducted with male SD rats aged six weeks. 300 mg/kg of Triton WR-1339 was intravenously injected to each rat of the first group to thereby induce hyperlipemia (Triton control group), while 10 mg/kg of cycloartenol ferulate or 10 mg/kg of γ-oryzanol was intravenously injected simultaneously with 300 mg/kg of Triton WR-1339 to each rat of other groups, thus examining the effect of decreasing lipids. Blood of each animal was collected 43 hours after the intravenous injection.

## COc1cc(/C=C/C(=O)O[C@H]2CC[C@]34C[C@]35CC[C@]3(C)[C@@H]([C@H](C)CCC=C(C)C)CC[C@@]3(C)[C@@H]5CC[C@H]4C2(C)C)ccc1O [cycloartenol ferulate]
Male SD rats [1]; blood, cholesterol diet, oral, 12 days, 100, 500 and 1000 mg/kg a day, vs cholesterol diet group (Fig. 5)
  free cholesterol (FC): lower than that of the cholesterol diet group to a statistically significant extent
Male SD rats [1]; blood, cholesterol diet, oral, 12 days, 100, 500 and 1000 mg/kg a day, vs cholesterol diet group (Fig. 6)
  triglyceride (TG): lower than that of the cholesterol diet group to a statistically significant extent
Male SD rats [1]; blood, cholesterol diet, oral, 12 days, 100, 500 and 1000 mg/kg a day, vs cholesterol diet group (Fig. 7)
  phospholipids (PL): lower than that of the cholesterol diet group to a statistically significant extent
Male SD rats [1]; cholesterol diet suppresses body weight gain, oral, 12 days (Fig. 12)
  body weight gain: accelerated the growth of animals
Male SD rats [1]; cholesterol diet, oral, 12 days (Fig. 9)
  arteriosclerosis index: remarkably lowers this index
Male SD rats [1]; cholesterol diet, oral, 12 days, vs cholesterol diet group (Fig. 8)
  HDL-cholesterol (HDLC): increase HDLC to a statistically significant extent
Male SD rats [1]; rat, in vivo, po
  GOT: no changes
  GPT: no changes
Dd mice
  acute toxicity: no animal died nor showed any toxic symptom
SD rats
  acute toxicity: no animal died nor showed any toxic symptom
Male SD rats [2]; vs Triton control group and γ-oryzanol group (Fig. 13)
  TC: significant decreases
Male SD rats [2]; vs Triton control group and γ-oryzanol group (Fig. 14)
  FC: significant decreases
Male SD rats [2]; vs Triton control group and γ-oryzanol group (Fig. 15)
  TG: significant decreases
